The target of this experiment is MAPK14;MAPK11;MAPK12 (human) (UniProt Q16539). Description: Inhibition of p38 Kinase Activity.

From the Kinase Knowledgebase extract (Sharma et al. 2016) come the findings set out here.

The term IC50 denotes the concentration that gives 50% inhibition.

`Cc1ccc(CN2CC[C@H](Nc3nc(Nc4cc(C(N)=O)ccc4C)nc(N(C)CC(C)C)n3)C2)c(C)c1` came in with an IC50 below 1 µM.

In turn, `Cc1ccc(C(N)=O)cc1Nc1nc(NC2CCN(C(C)(C)C)C2)nc(N(C)CC(C)C)n1` (stereo unspecified) came in with an IC50 below 1 µM.

In turn, `CC(CNc1nc(Nc2ccc3ncsc3c2)nc(N(C)CCCN(C)C(=S)NC2CCCCC2)n1)c1ccccc1` (stereo unspecified) returned an IC50 below 10 µM.

`Cc1ccc(C(N)=O)cc1Nc1nc(CC2CCCC2)nc(Nc2ccncc2)n1` displayed an IC50 below 1 µM.

In turn, `COCC(=O)N1CC2CC1CN2c1nc(NCC(C)c2ccccc2)nc(Nc2ccc3ncsc3c2)n1` (stereo unspecified) came in with an IC50 below 10 µM.

In the case of `Cc1ccc(C(N)=O)cc1Nc1nc(N[C@H]2CCNC2)cc(N(C)CC(C)(C)C)n1`, the IC50 was below 1 µM.

The compound `Cc1ccc(C(N)=O)cc1Nc1nc(NCC2CCCCC2)nc(N[C@@H]2CCNC2)n1` displayed an IC50 below 1 µM.

Compound `Cc1ccc(C(=O)Nc2cccc(N(C)C)c2)cc1Nc1nc(N[C@H]2CCNC2)nc(N(C)CC(C)C)n1` had an IC50 below 1 µM.

As for `Cc1ccc(C(N)=O)cc1Nc1nc(N[C@@H]2CCN(C(C)CC(C)C)C2)nc(N(C)CC(C)(C)C)n1` (stereo partly specified), the IC50 is below 1 µM.

In turn, `O=S(=O)(Nc1ncccn1)c1ccc(Nc2nc(Cl)nc(NCCc3ccccc3)n2)cc1` registered an IC50 below 10 µM.

With `Cc1ccc(C(N)=O)cc1Nc1nc(NCCc2ccc(F)cc2)nc(N[C@H]2CCNC2)n1`, the IC50 is below 1 µM.

On to `Cc1ccc(C(N)=O)cc1Nc1nc(N[C@H]2CN[C@@H](CO)C2)nc(N(C)CC(C)(C)C)n1`, for which the IC50 is below 1 µM.

Compound `CONC(=O)c1ccc(F)c(Sc2nc(N[C@@H]3CCNC3)nc(N(C)CC(C)(C)C)n2)c1` gave an IC50 below 30 µM.

Take `Cc1ccc(C(N)=O)cc1Nc1nc(N[C@H]2CCNC2)nc(N(C)C[C@@H]2CC[C@H]3C[C@H]2C3(C)C)n1`: the IC50 is below 1 µM.

As for `C=CCN1CC[C@H](Nc2nc(Nc3cc(C(=O)NCC)ccc3C)nc(N(C)CC3CCCC3)n2)C1`, the IC50 is below 1 µM.

The compound `CC1(C)C2CCC(CNc3nc(Nc4ccc5ncoc5c4)nc(N4CCNCC4)n3)C1C2` (stereo unspecified) displayed an IC50 below 10 µM.

`CNC(=O)c1ccc(C)c(Nc2nc(NC3CCN(Cc4ccccc4)C3)nc(N(C)CC(C)C)n2)c1` (stereo unspecified) displayed an IC50 below 1 µM.

As for `OC(CNc1nc(Cl)nc(Nc2ccc3ncsc3c2)n1)c1ccccc1` (stereo unspecified), the IC50 was below 10 µM.

The compound `Cc1ccc(-c2ncc[nH]2)cc1Nc1nc(N(C)CC(C)(C)C)nc(N2CCCN(C)CC2)n1` registered an IC50 below 1 µM.

`CC(CNc1nc(Nc2ccc3ncsc3c2)nc(N2CCN(C(=O)c3ccco3)CC2)n1)c1ccccc1` (stereo unspecified) showed a 50% inhibitory concentration (IC50) below 10 µM.

`CC(C)NC(=O)N(C)CCCN(C)c1nc(NCC(C)c2ccccc2)nc(Nc2ccc3ncsc3c2)n1` (stereo unspecified) had an IC50 below 10 µM.

Take `CNC(=O)c1ccc(C)c(Nc2nc(N[C@H]3CCNC3)nc(N(C)CC(C)(C)C)n2)c1`: the IC50 is below 1 µM.

In the case of `Cc1ccc(C(N)=O)cc1Nc1nc(O)nc(N[C@H]2CCNC2)n1`, the IC50 was below 1 µM.

Compound `CC(CNc1nc(Nc2ccc3ncsc3c2)nc(N2CCN(C(=O)c3cccnc3)CC2)n1)c1ccccc1` (stereo unspecified) had an IC50 below 10 µM.

Compound `Cc1cc2c(cc1Nc1nc(NCC(C)(C)C)nc(N[C@H]3CCNC3)n1)C(=O)NC2` had an IC50 below 1 µM.

Compound `CONC(=O)c1ccc(C)c(Nc2nc(NCCN3CCCC3)nc(N(C)CC(C)(C)C)n2)c1` showed an IC50 below 1 µM.

`CNCCN(C)c1nc(NCC(C)c2ccccc2)nc(Nc2ccc3nc(C)sc3c2)n1` (stereo unspecified) had an IC50 below 10 µM.

`CC(Cc1ccccc1)Nc1nc(Nc2ccc3ncsc3c2)nc(N2CCNCC2)n1` (stereo unspecified) displayed an IC50 below 10 µM.

For `Cc1ccc(Nc2nc(NC[C@@H]3CC[C@H]4C[C@@H]3C4(C)C)nc(N3CCCNCC3)n2)cc1C(N)=O`, the IC50 was below 10 µM.

Regarding `Cc1ccc(C(=O)Nc2ccccn2)cc1Nc1nc(N[C@H]2CCNC2)nc(N(C)CC(C)C)n1`, the IC50 is below 1 µM.

In the case of `CNC(=O)c1ccc(C)c(Nc2nc(N[C@H]3CCN(C(C)C)C3)nc(N(C)CC(C)(C)C)n2)c1`, the half-inhibitory concentration (IC50) is below 1 µM.

`Cc1ccc(C(N)=O)cc1Nc1nc(N[C@H]2CCNC2)nc(N(C)CC2CCCC2)n1` showed an IC50 below 1 µM.

`CC(CN(C)c1nc(Nc2ccc3ncsc3c2)nc(N2CCNCC2)n1)c1ccccc1` (stereo unspecified) showed an IC50 below 10 µM.

`Cc1ccc(C(N)=O)cc1Nc1nc(NCC(C)C)nc(N[C@H]2CCNC2)n1`: the IC50 is below 1 µM.

In turn, `CN(CC1CCC2CC1C2(C)C)c1nc(Nc2ccc3ncsc3c2)nc(N2CCNCC2)n1` (stereo unspecified) gave a half-maximal inhibitory concentration (IC50) below 10 µM.

For `COc1ccc(C(=O)N(C)CCCN(C)c2nc(NCC(C)c3ccccc3)nc(Nc3ccc4ncsc4c3)n2)cc1` (stereo unspecified), the half-inhibitory concentration (IC50) is below 10 µM.

Take `CONC(=O)c1ccc(C)c(Nc2nc(NCCc3ccccn3)nc(N(C)CC(C)(C)C)n2)c1`: the IC50 is below 1 µM.

With `Cc1ccc(C(=O)Nc2ccccc2)cc1Nc1nc(N[C@H]2CCNC2)nc(N(C)CC(C)(C)C)n1`, the IC50 was below 1 µM.

Compound `Cc1ccc(C(N)=O)cc1Nc1nc(NCCc2ccc3c(c2)OCO3)nc(N[C@H]2CCNC2)n1` returned an IC50 below 1 µM.

In the case of `CNC(=O)CCC(=O)N1CCN(c2nc(NCC3CC[C@H]4C[C@@H]3C4(C)C)nc(Nc3ccc4ncsc4c3)n2)CC1` (stereo partly specified), the half-inhibitory concentration (IC50) is below 10 µM.

For the compound `CONC(=O)c1ccc(C)c(Nc2nc(N(C)CC(C)(C)C)nc(N3CCCN(C)CC3)n2)c1`, the IC50 was below 1 µM.

In turn, `COc1ccccc1CN1CC[C@@H](Nc2nc(Nc3cc(C(N)=O)ccc3C)nc(N(C)CC(C)C)n2)C1` gave an IC50 below 1 µM.

On to `NC(=O)C1CCN(c2cc(Nc3ccc4ncsc4c3)nc(NC3CCC3)n2)CC1`, for which the IC50 was below 10 µM.

`Cc1ccc(C(N)=O)cc1Nc1nc(N[C@@H]2CCN(C(C)C(C)C)C2)nc(N(C)CC(C)(C)C)n1` (stereo partly specified) gave a half-inhibitory concentration (IC50) below 1 µM.

`CONC(=O)c1ccc(C)c(Nc2nc(NCc3cccc(F)c3)nc(N(C)CC(C)(C)C)n2)c1` returned an IC50 below 1 µM.

In the case of `Cc1ccc(C(N)=O)cc1Nc1nc(N[C@H]2CCN(CC(C)(C)C)C2)nc(N(C)CC(C)(C)C)n1`, the IC50 was below 1 µM.

In turn, `CN(CC1CCC2CC1C2(C)C)c1nc(Nc2ccc3ncsc3c2)nc(N2CCN(C(=O)OC(C)(C)C)CC2)n1` (stereo unspecified) had an IC50 below 10 µM.

Take `CC1(C)C2CCC(CNc3nc(Nc4ccc5ncsc5c4)nc(N4CCN(C(=O)CCC(=O)O)CC4)n3)C1C2` (stereo unspecified): the IC50 was below 10 µM.

Compound `COCC(=O)N1CCN(c2nc(NCC(C)c3ccccc3)nc(Nc3ccc4ncsc4c3)n2)CC1` (stereo unspecified) had an IC50 below 10 µM.

Consider `CC(=O)Nc1ccc(C)c(Nc2nc(N[C@H]3CCNC3)nc(N(C)CC(C)(C)C)n2)c1`, for which the IC50 was below 1 µM.

As to `Cc1ccc(C(N)=O)cc1Nc1nc(CCC(C)C)nc(N[C@H]2CCNC2)n1`, the IC50 was below 1 µM.

On to `Cc1ccccc1NC(=O)N1CC2CC1CN2c1nc(NCC(C)c2ccccc2)nc(Nc2ccc3ncsc3c2)n1` (stereo unspecified), for which the IC50 was below 10 µM.

In the case of `Cc1ccc(C(N)=O)cc1Nc1nc(N[C@H]2CCNC2)nc(SCC(C)C)n1`, the IC50 was below 1 µM.

`Cc1ccc(C(N)=O)cc1Nc1nc(NC2CCCCC2)nc(N(C)CC(C)(C)C)n1` came in with an IC50 below 1 µM.

`Cc1ccc(C(N)=O)cc1Nc1nc(N[C@H]2CCN(C(C)c3ccccc3)C2)nc(N(C)CC(C)C)n1` (stereo partly specified) displayed an IC50 below 1 µM.

For the compound `CONC(=O)c1ccc(C)c(Nc2nc(N[C@H]3CCN(C)C3)nc(N(C)CC(C)(C)C)n2)c1`, the IC50 is below 1 µM.

In the case of `CNCCN(C)c1nc(NC[C@@H]2CC[C@H]3C[C@@H]2C3(C)C)nc(Nc2ccc3ncsc3c2)n1`, the IC50 was below 10 µM.

For `Clc1nc(Nc2ccc3ncsc3c2)nc(N2CCCC(c3ccccc3)C2)n1` (stereo unspecified), the IC50 was below 10 µM.

On to `Cc1ccc(C(N)=O)cc1Nc1nc(N[C@H]2CCN(Cc3ccc(C(C)C)cc3)C2)nc(N(C)CC(C)C)n1`, for which the IC50 is below 1 µM.

Regarding `CCNC(=O)N(C)CCCN(C)c1nc(NCC(C)c2ccccc2)nc(Nc2ccc3ncsc3c2)n1` (stereo unspecified), the IC50 is below 10 µM.

In turn, `Cc1ccccc1CN1CC[C@H](Nc2nc(Nc3cc(C(N)=O)ccc3C)nc(N(C)CC(C)C)n2)C1` registered an IC50 below 1 µM.

In the case of `Cc1ccc(-c2nnc[nH]2)cc1Nc1nc(N[C@@H]2CCNC2)nc(N(C)CC(C)(C)C)n1`, the IC50 is below 1 µM.

On to `Cc1ccc(C(=O)NCCc2ccccc2)cc1Nc1nc(N[C@H]2CCNC2)nc(N(C)CC(C)(C)C)n1`, for which the IC50 was below 1 µM.

Regarding `Cc1cc(Cl)c(C(N)=O)cc1Nc1nc(N[C@H]2CCNC2)nc(N(C)CC(C)C)n1`, the IC50 was below 1 µM.

`Cc1ccc(C(N)=O)cc1Nc1nc(NC[C@H]2CCCN2)nc(N(C)CC(C)C)n1` came in with an IC50 below 1 µM.

On to `Cc1ccc(C(=O)NCc2ccccc2)cc1Nc1nc(N[C@H]2CCNC2)nc(N(C)CC(C)(C)C)n1`, for which the IC50 was below 1 µM.

`CONC(=O)c1ccc(C)c(Nc2nc(N(C)CC(C)(C)C)cc(N3CCCN(C)CC3)n2)c1` came in with an IC50 below 1 µM.

In the case of `CNCCN(C)c1nc(NCC2CCC3CC2C3(C)C)nc(Nc2ccc3ncccc3c2)n1` (stereo unspecified), the IC50 is below 10 µM.

The compound `Cc1ccc(C(N)=O)cc1Nc1nc(N[C@H]2CCN(Cc3ccccc3)C2)nc(N(C)CC(C)(C)C)n1` returned an IC50 below 1 µM.

As to `C[C@H](CNc1ncnc(Nc2ccc3ncsc3c2)n1)c1ccccc1`, the IC50 was below 10 µM.

Compound `CONC(=O)c1ccc(C)c(Nc2nc(N[C@H]3CCN(C(C)C)C3)nc(N(C)CC(C)(C)C)n2)c1` came in with an IC50 below 1 µM.

As for `CONC(=O)c1ccc(C)c(Nc2nc(NCCn3cccn3)nc(N(C)CC(C)(C)C)n2)c1`, the IC50 is below 1 µM.

As to `Nc1nc(NCCc2ccccc2)nc(Nc2ccc(S(=O)(=O)N(C=O)c3ncccn3)cc2)n1`, the IC50 was below 10 µM.

For the compound `CC(CNc1nc(Nc2ccc3ncsc3c2)nc(N2CCN(C(=O)c3ccccc3)CC2)n1)c1ccccc1` (stereo unspecified), the IC50 is below 10 µM.

`Cc1ccc(C(N)=O)cc1Sc1nc(N(C)CC(C)(C)C)nc(N2CCCN(C)CC2)n1` displayed an IC50 below 30 µM.

Turning to `CCONC(=O)c1ccc(C)c(Nc2nc(N)nc(N(C)CC(C)(C)C)n2)c1`, the IC50 is below 1 µM.

For `Cc1ccc(C(N)=O)cc1Sc1nc(NCc2ccccn2)nc(N(C)CC(C)(C)C)n1`, the IC50 is below 30 µM.

In the case of `CC1(C)[C@H]2CCC(CNc3nc(Cl)nc(Nc4ccc(S(=O)(=O)Nc5ncccn5)cc4)n3)[C@@H]1C2` (stereo partly specified), the IC50 is below 10 µM.

Compound `CCN(CC(C)(C)C)c1nc(Nc2cc(C(N)=O)ccc2C)nc(N[C@H]2CCNC2)n1` showed an IC50 below 1 µM.

For `COc1ccc(C(=O)N2CCN(c3nc(NCC(C)c4ccccc4)nc(Nc4ccc5ncsc5c4)n3)CC2)cc1` (stereo unspecified), the IC50 was below 10 µM.

The compound `CNc1nc(NCCOC(C)C)nc(Nc2ccc3ncsc3c2)n1` gave an IC50 below 10 µM.
